Tests used:
[1] = target: T1, E255K mutant BCR-ABL (Homo sapiens, UniProt P00519, E255K); assay: Self-phosphorylation inhibitory effect on mutant (E255K) BCR-ABL in transfected 293T cells (Western blot, PY99); assay type: cell-based; settings: 2 hours
T1 construct: expressed in transfected cells; host or cells: 293T cells (ATCC), Lipofectamine transfection; the other entry of the earlier key: BCR (P11274, Breakpoint cluster region protein)
Protocol: The cells were seeded in an amount of 5 ml in a Poly-L-Lysin coated 6 cm dish so as to give 1.2×10^6 cells/well. […] Using a Lipofectamine reagent (manufactured by Invitrogen), 2 μg of E255K mutant bcr-abl gene expression vector was transfected into the cell. […] The dish was incubated in a CO2 incubator for 2 hours. After treatment with trypsin, the cells were collected into a 15 ml centrifuge tube. The tube was centrifuged at 1000 rpm at room temperature for one minute. After removal of the medium, 50 μl of a cell lysis solution was added. The cells were subjected to cytolysis with a mixer. The tube was left to stand at 4° C. for 15 minutes and transferred to 1.5 ml tube. The tube was centrifuged at 12,000 rpm at 4° C. for 15 minutes. The cell lysate was collected into another 1.5 ml tube. The concentration of protein was measured according to BCA method. The samples of cell lysate containing […] of protein was analyzed by SDS-PAGE polyacrylamide. After electrophoresis, the protein was transferred onto a nylon filter (Hybond-P) with wet method at 4° C. overnight. The nylon filter was reacted in 10 ml of PBS/0.1% Tween-20 containing 0.2 μg/ml anti-phosphorylation tyrosin kinase antibody (PY99) (manufactured by Toyobo) at room temperature for one hour. The nylon filter was washed with PBS three times and then reacted 10 ml of PBS/0.1% Tween-20 containing 0.4 μg/ml Anti-mouse IgG AP-conjugated (manufactured by Cell Signaling) at room temperature for one hour. After the nylon filter was washed with PBS four times, self-phosphorylation of p210 BCR-ABL was detected with alkaline phosphatase color developing reagent.
The results are shown as follows: +++: almost perfectly inhibition of phosphorylation; ++: around half of inhibition; +: week inhibition; and −: no inhibition.

[2] = test system: K562 cells; assay: Cell growth inhibitory effect, K562 cells (WST-8, 72 hours); settings: for IC50: Homo sapiens, K562, 72 h, read-out: K562 cells (IC50 value: μM); for Ratio (U937 cells/K562 cells): ratio of IC50 values U937 cells/K562 cells
[3] = test system: U937 cells; assay: Cell growth inhibitory effect, U937 cells (WST-8, 72 hours); settings: Homo sapiens, U-937, 72 h, read-out: U937 cells (IC50 value: μM)

T1 sequence (P00519 28-1130 E255K limits assumed): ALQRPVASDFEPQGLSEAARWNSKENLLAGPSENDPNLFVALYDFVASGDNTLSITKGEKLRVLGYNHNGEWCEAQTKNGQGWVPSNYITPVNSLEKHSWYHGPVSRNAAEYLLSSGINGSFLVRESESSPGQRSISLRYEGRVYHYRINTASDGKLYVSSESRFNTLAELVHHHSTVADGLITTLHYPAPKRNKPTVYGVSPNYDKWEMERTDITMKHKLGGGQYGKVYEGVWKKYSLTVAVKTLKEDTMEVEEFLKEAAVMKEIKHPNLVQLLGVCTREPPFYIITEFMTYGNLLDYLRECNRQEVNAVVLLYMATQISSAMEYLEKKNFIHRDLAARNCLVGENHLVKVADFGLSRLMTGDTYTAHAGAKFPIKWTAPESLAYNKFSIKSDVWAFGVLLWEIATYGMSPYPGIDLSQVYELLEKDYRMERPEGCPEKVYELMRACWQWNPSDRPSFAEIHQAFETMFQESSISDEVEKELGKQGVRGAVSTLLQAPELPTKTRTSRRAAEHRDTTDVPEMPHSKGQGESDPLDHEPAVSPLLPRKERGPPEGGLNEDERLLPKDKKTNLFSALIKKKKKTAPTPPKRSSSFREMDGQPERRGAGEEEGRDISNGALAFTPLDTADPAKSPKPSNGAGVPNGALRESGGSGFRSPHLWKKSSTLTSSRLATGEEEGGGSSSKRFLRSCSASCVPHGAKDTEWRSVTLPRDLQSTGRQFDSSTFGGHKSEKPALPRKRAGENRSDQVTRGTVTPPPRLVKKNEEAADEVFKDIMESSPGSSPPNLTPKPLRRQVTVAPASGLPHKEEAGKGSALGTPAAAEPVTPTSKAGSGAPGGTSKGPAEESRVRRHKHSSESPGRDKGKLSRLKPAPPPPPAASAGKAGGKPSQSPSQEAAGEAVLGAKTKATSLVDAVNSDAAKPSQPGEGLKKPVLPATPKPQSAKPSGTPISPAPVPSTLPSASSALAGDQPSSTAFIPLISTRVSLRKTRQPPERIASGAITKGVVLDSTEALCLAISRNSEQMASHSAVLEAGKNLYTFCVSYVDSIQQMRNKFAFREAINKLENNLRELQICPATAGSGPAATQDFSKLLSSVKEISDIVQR

| Compound | Self-phosphorylation inhibitory effect on E255K mutant BCR-ABL ([1]; 1 μM) | Self-phosphorylation inhibitory effect on E255K mutant BCR-ABL ([1]; 3 μM) | Self-phosphorylation inhibitory effect on E255K mutant BCR-ABL ([1]; 10 μM) | melting point | IC50 [2] [µM] | IC50 [3] [µM] | Self-phosphorylation inhibitory effect on E255K mutant BCR-ABL ([1]; 0.1 μM) | Self-phosphorylation inhibitory effect on E255K mutant BCR-ABL ([1]; 0.3 μM) | Ratio (U937 cells/K562 cells) [2] |
| --- | --- | --- | --- | --- | --- | --- | --- | --- | --- |
| Cc1ccc(NC(=O)c2ccc(CN3CCN(C)CC3)c(Br)c2)cc1Nc1nccc(-c2cnccn2)n1 [Example 7, 3-bromo-4-(4-methylpiperazin-1-ylmethyl)-N-{4-methyl-3-[4-(2-pyrazinyl)pyrimidin-2-ylamino]phenyl}benzamide] | − | ++ | +++ | 213 to 214 °C (dec.) | 0.0054 | 6.51 |  |  | 1205.6 |
| COc1cc(C(=O)Nc2ccc(C)c(Nc3nccc(-c4cccnc4)n3)c2)cc(OC)c1CN1CCN(C)CC1 [Example 25, 3,5-dimethoxy-4-(4-methylpiperazin-1-ylmethyl)-N-{4-methyl-3-[4-(3-pyridyl)pyrimidin-2-ylamino]phenyl}benzamide] |  |  |  | 201 to 214 °C (dec.) | 0.03 | 17 |  |  | 566.7 |
| CCCN1CCN(Cc2ccc(C(=O)Nc3ccc(C)c(Nc4nccc(-c5cccnc5)n4)c3)cc2Br)CC1 [Example 28, 3-bromo-4-[4-(n-propyl)piperazin-1-ylmethyl]-N-{4-methyl-3-[4-(3-pyridyl)pyrimidin-2-ylamino]phenyl}benzamide] |  |  |  | 204 to 205 °C | 0.00065 | 6.97 |  |  | 10723.1 |
| Cc1ccc(NC(=O)c2ccc(CN(C)C)c(Br)c2)cc1Nc1nccc(-c2cccnc2)n1 [Example 29, 3-bromo-4-(N,N-dimethylaminomethyl)-N-{4-methyl-3-[4-(3-pyridyl)pyrimidin-2-ylamino]phenyl}benzamide] |  |  |  | 154 to 155 °C | 0.017 | > 10 |  |  | >588.2 |
| CCN(CC)Cc1ccc(C(=O)Nc2ccc(C)c(Nc3nccc(-c4cccnc4)n3)c2)cc1Br [Example 30, 3-bromo-4-(N,N-diethylaminomethyl)-N-{4-methyl-3-[4-(3-pyridyl)pyrimidin-2-ylamino]phenyl}benzamide] |  |  |  | 172 to 173 °C | 0.022 | > 10 |  |  | >454.5 |
| Cc1ccc(NC(=O)c2ccc(CN3CCCN(C)CC3)c(Br)c2)cc1Nc1nccc(-c2cccnc2)n1 [Example 35, 3-bromo-4-(4-methyl-hexahydro-1H-1,4-diazepin-1-ylmethyl)-N-{4-methyl-3-[4-(3-pyridyl)pyrimidin-2-ylamino]phenyl}benzamide] |  |  |  | 156 to 157 °C | 0.0075 | 5.22 |  |  | 696.0 |

Further compounds by falling IC50 [2], results first:

| Self-phosphorylation inhibitory effect on E255K mutant BCR-ABL ([1]; 1 μM) | Self-phosphorylation inhibitory effect on E255K mutant BCR-ABL ([1]; 3 μM) | Self-phosphorylation inhibitory effect on E255K mutant BCR-ABL ([1]; 10 μM) | melting point | IC50 [2] [µM] | IC50 [3] [µM] | Self-phosphorylation inhibitory effect on E255K mutant BCR-ABL ([1]; 0.1 μM) | Self-phosphorylation inhibitory effect on E255K mutant BCR-ABL ([1]; 0.3 μM) | Compound | Ratio (U937 cells/K562 cells) [2] |
| --- | --- | --- | --- | --- | --- | --- | --- | --- | --- |
|  |  |  | 159 to 161 °C (dec.) | 0.035 | > 10 |  |  | COC(=O)c1cc(C(=O)Nc2ccc(C)c(Nc3nccc(-c4cccnc4)n3)c2)ccc1CN1CCN(C)CC1 [Example 39, 3-methoxycarbonyl-4-(4-methylpiperazin-1-ylmethyl)-N-{4-methyl-3-[4-(3-pyridyl)pyrimidin-2-ylamino]phenyl}benzamide] | >285.7 |
|  |  |  | 191 to 193 °C (dec.) | 0.0054 | 4.2 |  |  | Cc1ccc(NC(=O)c2ccc(CN3CCN(C)CC3)c(C#N)c2)cc1Nc1nccc(-c2cccnc2)n1 [Example 40, 3-cyano-4-(4-methylpiperazin-1-ylmethyl)-N-{4-methyl-3-[4-(3-pyridyl)pyrimidin-2-ylamino]phenyl}benzamide] | 777.8 |
| − | + | +++ | 193 to 194 °C (dec.) | 0.0046 | 5.01 |  |  | Cc1ccc(NC(=O)c2ccc(CN3CCN(C)CC3)c(Cl)c2)cc1Nc1nccc(-c2cccnc2)n1 [Example 3, 3-chloro-4-(4-methylpiperazin-1-ylmethyl)-N-{4-methyl-3-[4-(3-pyridyl)pyrimidin-2-ylamino]phenyl}benzamide] | 1089.1 |
| + | ++ | +++ | 199 to 200 °C (dec.) | 0.0023 | 3.34 |  |  | Cc1ccc(NC(=O)c2ccc(CN3CCN(C)CC3)c(I)c2)cc1Nc1nccc(-c2cccnc2)n1 [Example 2, 3-iodo-4-(4-methylpiperazin-1-ylmethyl)-N-{4-methyl-3-[4-(3-pyridyl)pyrimidin-2-ylamino]phenyl}benzamide] | 1452.2 |
| + | ++ | +++ | 194 to 195 °C (dec.) | 0.0017 | 1.86 |  |  | Cc1ccc(NC(=O)c2ccc(CN3CCN(C)CC3)c(Br)c2)cc1Nc1nccc(-c2cncc(Br)c2)n1 [Example 9, 3-bromo-4-(4-methylpiperazin-1-ylmethyl)-N-{3-[4-(5-bromopyridin-3-yl)pyrimidin-2-ylamino]-4-methylphenyl}benzamide] | 1094.1 |
| ++ | +++ | +++ | 171 to 173 °C (dec.) | 0.0014 | 3.27 | − | − | Cc1ccc(NC(=O)c2ccc(CN3CCN(C)CC3)c(C(F)(F)F)c2)cc1Nc1nccc(-c2cncc(Br)c2)n1 [Example 10, 4-(4-methylpiperazin-1-ylmethyl)-3-trifluoromethyl-N-{3-[4-(5-bromopyridin-3-yl)pyrimidin-2-ylamino]-4-methylphenyl}benzamide] | 2335.7 |
| ++ | +++ | +++ | 238 to 240 °C (dec.) | 0.0012 | 6.2 | − | + | Cc1ccc(NC(=O)c2ccc(CN3CCN(C)CC3)c(Br)c2)cc1Nc1nccc(-c2cncnc2)n1 [Example 13, 3-bromo-4-(4-methylpiperazin-1-ylmethyl)-N-{4-methyl-3-[4-(5-pyrimidinyl)pyrimidin-2-ylamino]phenyl}benzamide] | 5166.7 |

From patent publication US7494997B2, “Amide derivative” (Nippon Shinyaku Co., Ltd., priority 2002, dated 2009)
